The record followed here is patent US7220764B2, “Sphingosine kinase inhibitors” (The Pennsylvania State University Research Foundation, priority 2002, dated 2007).

Data set [1] concerns T-24 human bladder carcinoma cells. Description: Cytotoxicity, SRB binding assay, T24. In kind it is cell-based. As to conditions: 48 h treatment, mean ± SD. As to the method: (§1) The SK inhibitor compounds of the invention are antiproliferative and induce apoptosis in replicating cells. In order to assess the compounds' efficacy in intact cells, the compounds were evaluated for cytotoxicity using a panel of human cancer cell lines. These experiments followed methods that have been extensively used (see for, example, Smith et al., Cancer Res. 54: 3779–3784 (1994); Smith et al., Oncology Res. 6: 211–218 (1994); and Lawrence et al., J. Med. Chem. 44: 594–601 (2001). Cell lines tested included T-24 human bladder carcinoma cells, MCF-7 human breast adenocarcinoma cells, MCF-7/VP cells, which are a subline of MCF-7 cells that is resistant to several anticancer drugs due to overexpression of the transport protein MRP 1, and NCI/ADR, a cell line resistant to many anticancer drugs due to overexpression of the drug transporter P-glycoprotein.
(§2) The indicated cell lines were treated with varying doses of compounds 1–4 for 48 h. Cell survival was then determined using the SRB binding assay (Skehan et al., 1990, J. Natl. Cancer Inst. 82: 1107–1112), and the concentration of compound that inhibited proliferation by 50% was calculated. Values represent the mean ±SD for replicate samples.
(§3) As these transporters are often overexpressed in tumor cells, particularly after the patient has been treated with cytotoxic drugs, the SK inhibiting compounds of the invention are effective therapeutic agents for resistant tumors.

For data set [2], the target named is ERK2 (Homo sapiens, UniProt P28482). Description: Kinase selectivity panel: ERK2. As to conditions: for IC50: human isoform, mean ± SD of triplicate experiments, read-out: ERK2, concentration required to inhibit enzyme activity by 50%. Type of data set: biochemical. As to the method:
(§4) Thus potencies of each inhibitor were determined for human isoforms of ERK2, PI3K and PKCα. SK inhibition data is provided for comparison. Data represent the concentrations required to inhibit enzyme activity by 50%, and are the mean ±SD of triplicate experiments. Results designated as “None” indicate that no inhibition was detected at concentrations up to 60 μM.

Data set [3] concerns MCF-7/VP cells (MRP 1 overexpression). The experiment in a line: Cytotoxicity, SRB binding assay, MCF-7/VP. In kind it is cell-based. As to conditions: Homo sapiens, MCF7-VP, 48 h treatment, mean ± SD. The method, then:
as §1, §2, §3
(In general: Sulforhodamine B stains cellular protein and so reports cell mass.)

Data set [4] has as its target T1, PI3K.
T1 construct: other: human isoform; mean ± SD of triplicate experimen; activity toward PI3K (in words)
The experiment in a line: Kinase selectivity panel: PI3K (lipid kinase). Type of data set: biochemical, human. As to conditions: for IC50: human isoform, mean ± SD of triplicate experiments, read-out: PI3K, concentration required to inhibit enzyme activity by 50%. As to the method: Thus potencies of each inhibitor were determined for human isoforms of ERK2, PI3K and PKCα. […] Data represent the concentrations required to inhibit enzyme activity by 50%, and are the mean ±SD of triplicate experiments. Results designated as “None” indicate that no inhibition was detected at concentrations up to 60 μM.

The target in data set [5] is T2, recombinant human SK (Homo sapiens, UniProt Q9NYA1).
T2 construct: glutathione-S-transferase (GST); made in house; host or cells: bacteria (PGEX bacterial expression vector, Pharmacia)
The experiment in a line: Sphingosine kinase screen / inhibition of recombinant human SK ([3H]sphingosine to [3H]S1P). In kind it is biochemical. As to conditions: for inhibition at 5 µg/mL: read-out: inhibited SK activity by %; for IC50: mean ± SD of triplicate experiments, read-out: SK, concentration required to inhibit enzyme activity by 50%. The method, then: This method involved incubating [^3H]sphingosine with 1 mM ATP under conditions defined in the reference, followed by extraction of the assay mixture with chloroform:methanol (2:1) under basic conditions. […] Radioactivity in aliquots of the aqueous phase was then quantified as a measure of [^3H]S1P formation.
Varying concentrations of the indicated compounds were evaluated for inhibition of recombinant human SK as described above.

For data set [6], the system named is NCI/ADR cells (P-glycoprotein overexpression). The experiment in a line: Cytotoxicity, SRB binding assay, NCI/ADR. Type of data set: cell-based. The following applies: Homo sapiens, NCI/ADR-RES, 48 h treatment, mean ± SD. As to the method: as §1, §2, §3
For data set [7], the system named is MCF-7 human breast adenocarcinoma cells. The experiment in a line: Cytotoxicity, SRB binding assay, MCF-7. Type of data set: cell-based. The following applies: MCF7, 48 h treatment, mean ± SD. As to the method: as §1, §2, §3
Data set [8] deals with PKCα (Homo sapiens, UniProt P17252). Description: Kinase selectivity panel: PKCα. In kind it is biochemical. The following applies: for IC50: human isoform, mean ± SD of triplicate experiments, read-out: PKCα, concentration required to inhibit enzyme activity by 50%. As to the method: as §4
Data set [9] has as its system mouse JC mammary adenocarcinoma cells. Description: Antitumor activity in syngeneic tumor model. The following applies: 75 mg/kg intraperitoneally on days 1, 5, 9 and 15. Type of data set: in vivo, Balb/c mice. The method, then: These cells express elevated levels of SK activity relative to non-transformed cells, as well as the multidrug resistance phenotype due to P-glycoprotein activity (data not shown). Balb/c mice, 6–8 weeks old, were injected subcutaneously with […] suspended in PBS. […] The insert indicates the body weight of the animals during this experiment.

Where [10] appears, read: 5 μg/ml of compound (corresponds to 10–25 μM), 1 mM ATP.

Structures can show the parent of a compound that is named as a salt. Where two headings read alike, the source gives them in different places.

ERK2, sequence (P28482 whole entry, canonical isoform): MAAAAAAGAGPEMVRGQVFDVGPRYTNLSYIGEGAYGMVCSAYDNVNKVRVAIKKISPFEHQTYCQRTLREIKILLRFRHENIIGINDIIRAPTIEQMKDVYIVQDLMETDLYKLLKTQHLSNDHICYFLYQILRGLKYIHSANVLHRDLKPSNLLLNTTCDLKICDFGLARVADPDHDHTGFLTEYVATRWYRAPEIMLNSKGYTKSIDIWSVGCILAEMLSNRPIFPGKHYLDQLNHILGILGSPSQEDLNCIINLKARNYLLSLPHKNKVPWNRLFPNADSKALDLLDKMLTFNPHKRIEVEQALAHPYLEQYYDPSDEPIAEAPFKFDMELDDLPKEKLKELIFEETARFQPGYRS
T2 sequence (Q9NYA1 whole entry): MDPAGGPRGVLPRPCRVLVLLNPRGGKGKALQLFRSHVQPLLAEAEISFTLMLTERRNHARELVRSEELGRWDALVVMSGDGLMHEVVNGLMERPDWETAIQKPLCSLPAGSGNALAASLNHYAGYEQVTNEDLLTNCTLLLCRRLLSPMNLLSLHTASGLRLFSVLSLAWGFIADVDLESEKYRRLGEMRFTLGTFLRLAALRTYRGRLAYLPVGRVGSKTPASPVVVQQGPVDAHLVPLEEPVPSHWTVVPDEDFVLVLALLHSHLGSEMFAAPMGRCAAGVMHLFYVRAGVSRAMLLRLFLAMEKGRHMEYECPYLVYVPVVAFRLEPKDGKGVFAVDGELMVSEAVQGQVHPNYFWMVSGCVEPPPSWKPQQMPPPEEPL

In the case of `COc1ccc(N2C(=O)/C(=C\c3ccc(O)cc3O)SC2=S)cc1` [Compound 1, 5-(2,4-Dihydroxy-benzylidene)-3-(4-methoxy-phenyl)-2-thioxo-thiazolidin-4-one], the IC50 in data set [1] was 5.8 ± 1.5 µM; in [2], 26 ± 2 µM; in [3] it was 24.6 ± 1.9 µM; in [4] it was 42 ± 10 µM; in data set [5] it was 2.5 ± 0.7 µM; in data set [6], 6.2 ± 1.5 µM. In addition, the IC50 in [7] was 6.8 ± 1.5 µM; in [8] it was greater than 60 µM. Also, the inhibition at 5 µg/mL in data set [5] (setting [10]) was determined as 99%.
Consider `O=C(N/N=C/c1c(O)ccc2ccccc12)c1cc(-c2ccc3ccccc3c2)n[nH]1` [Compound 2, 5-Naphthalen-2-yl-2H-pyrazole-3-carboxylic acid (2-hydroxy-naphthalen-1-ylmethylene)-hydrazide], for which the IC50 is 1.1 ± 1.2 µM in data set [1]; 11 ± 1 µM in data set [2]; 2.9 ± 2 µM in data set [3]; greater than 60 µM in data set [4]; 1.2 ± 0.3 µM in data set [5]; 0.8 ± 1.3 µM in [6]. In addition, the IC50 in [7] was 0.4 µM; in data set [8] it was greater than 60 µM. Also, the “fold less potent toward ERK2 than SK” value in data set [2] (ERK2 versus SK) came to 10 fold. Moreover, in data set [5], the inhibition at 5 µg/mL is 85%.
Turning to `Oc1ccc(Nc2nc(-c3ccc(Cl)cc3)cs2)cc1` [Compound 3, 4-[4-(4-Chloro-phenyl)-thiazol-2-ylamino]-phenol], the IC50 in data set [1] was 4.6 ± 1.6 µM; in data set [2] it was greater than 60 µM; in data set [3], 0.9 ± 1.8 µM; in [4], greater than 60 µM; in [6], 1.3 ± 1.1 µM; in data set [7], 1.2 ± 1.3 µM. Moreover, the IC50 in data set [8] was greater than 60 µM. Moreover, the “activity toward ERK2 (in words)” value in [2] is recorded as “no inhibition was seen”. Further, the “activity toward PI3K (in words)” value in data set [4] is listed as “no inhibition was seen”. In addition, the inhibition at 5 µg/mL in data set [5] (setting [10]) is 99%. The “inhibition of PKCα (in words)” value in data set [8] is given as “no inhibition was seen”.
`O=C1/C(=C/c2ccc(O)c(O)c2)Sc2ccccc21` [Compound 4, 2-(3,4-Dihydroxy-benzylidene)-benzo [b] thiophen-3-one]: the IC50 stood at 7.8 ± 2 µM in data set [1]; 40 ± 5 µM in data set [2]; 1.8 ± 1.1 µM in [3]; 7 ± 2 µM in data set [4]; 0.6 ± 0.1 µM in data set [5]; 1.2 ± 2.4 µM in data set [6]. The IC50 is 1 ± 1.7 µM in [7] and greater than 60 µM in data set [8]. For the same compound, the “activity toward ERK2 (in words)” value in data set [2] is reported as “weak activity”. Also, the “activity toward PI3K (in words)” value in [4] is “moderate activity”. In addition, the inhibition at 5 µg/mL in data set [5] (setting [10]) worked out at 89%.
Regarding `O=C1/C(=C/c2ccc(O)c(O)c2)Oc2ccccc21` [Compound 5, 2-(3,4-Dihydroxy-benzylidene)-benzofuran-3-one], in [2], the “activity toward ERK2 (in words)” value is reported as “weak activity” and the IC50 worked out at 80 ± 4 µM. The “activity toward PI3K (in words)” value in data set [4] is recorded as “moderate activity”. For the same compound, in data set [9], the “difference in body weights versus control group” value is “No significant difference”. For the same compound, the “tumor growth decreased versus control animals” value in data set [9] (day 18, volume relative to day 1) is greater than 50%. For the same compound, in data set [8], the IC50 is greater than 60 µM.
For `COc1ccc(-n2c(SCC(=O)Nc3nc4ccccc4s3)nc(O)cc2=O)cc1` [Compound 6, N-Benzothiazol-2-yl-2-[4-hydroxy-1-(4-methoxy-phenyl)-6-oxo-1,6-dihydro-pyrimidin-2-ylsulfanyl]-acetamide], the inhibition at 5 µg/mL in data set [5] (setting [10]) worked out at 91%.
With `O=S(=O)(c1ccc(O)cc1)c1ccc(O)c(C23CC4CC(CC(C4)C2)C3)c1` [Compound 7, 2-(1-adamantyl)-4-[(4-oxidophenyl)sulfonyl]benzenolate disodium salt], in data set [5] (setting [10]), the inhibition at 5 µg/mL turned out to be 91%.
Same read-out and setting: under `Cc1cc2nc3s/c(=C\c4cc(I)cc(I)c4O)c(=O)n3c2cc1C` [Compound 8, 2-(2-Hydroxy-3,5-diiodo-benzylidene)-6,7-dimethyl-benzo[4,5] imidazo [2,1-b] thiazol-3-one] stands 98%.
On the same count and under the same terms, the same measure for `N#C/C(=C\c1ccc(O)c(O)c1)c1nc(-c2ccc3c(c2)OCO3)cs1` [Compound 9, 2-(4-Benzo[1,3]dioxol-5-yl-thiazol-2-yl)-3-(3,4-dihydroxy-phenyl)-acrylonitrile]: 94%.
With `CCOc1ccc2c(c1)NC(C)(C)c1ss/c(=N/c3ccc(O)cc3)c1-2` [Compound 10, 4-(7-Ethoxy-4,4-dimethyl-4,5-dihydro-2,3-dithia-5-aza-cyclopenta [α]naphthalen-1-ylideneamino)-phenol], the inhibition at 5 µg/mL in data set [5] (setting [10]) amounted to 81%.
Regarding `O=C(/C=C(O)/C(O)=C/C(=O)c1ccccc1)c1ccccc1` [Compound 11, 3,4 -Dihydroxy-1,6-diphenyl-hexa-2,4-diene-1,6-dione], the inhibition at 5 µg/mL in data set [5] (setting [10]) amounted to 98%.
On to `CCc1cc2c(s1)[S][Zn]1([N]=C2)[N]=Cc2cc(CC)sc2[S]1` [Compound 12], for which the inhibition at 5 µg/mL in data set [5] came out at 87%.
For the compound `CCCCCCCCCCCCC/C=C/[C@@H](O)[C@H](CO)N(C)C` [dimethylsphingosine, reference compound], the “inhibition of SK activity by positive control” value in data set [5] (at concentrations above 25 μM) is “completely inhibited”.
